Measured values as given in publication PMC7932537, “Quantitative profiling of protease specificity” (PLoS Computational Biology, 2021).

Legend:
[1] = test system: MMP-2; test: Substrate phage display with NGS: relative probability (RP) of P3-P1' tetramer clusters; assay type: biochemical, human; details: for relative probability (RP) of matching tetramer: P3-P1' tetramer matching the MS detected MMP2 cleavage sequence, RP_above_4.5; for avg_RP: MMP2 - no binning
[2] = test system: MMP-9; test: as above; assay type: biochemical, human
[3] = RP of the P3-P1' tetramer, MMP2 substrate phage display/NGS, tetramers of physiologic MEROPS substrates common to MMP2 and MMP9
[4] = RP of the P3-P1' tetramer, MMP9 substrate phage display/NGS, tetramers of physiologic MEROPS substrates common to MMP2 and MMP9
[5] = tetramer projected onto MMP-9 cleavage sites determined by Prudova et al. (2010)
[6] = MMP2, RP of matching P3-P1' tetramer, common set of MMP2-9 selectome, RP above KL threshold
[7] = RP of matching tetramer, common MMP2-9 selectome
[8] = MMP9, RP of matching P3-P1' tetramer, common set of MMP2-9 selectome
[9] = MMP9, RP of the P3-P1' tetramer matching the MS detected cleavage, RP above 4.7, substrate phage display with NGS
[10] = RP of matching tetramer, common MMP2-9 selectome, RP above KL threshold
[11] = RP of the P3-P1' tetramer cluster contained in the hexamer, 200 nM MMP-2, 2 h, 37°C, two rounds of selection
[12] = MMP9, RP of the P3-P1' tetramer contained in the hexamer substrate (substrate phage display, NGS)
[13] = average relative probability (RP) of the P3-P1' tetramer, redundant tetramers have been averaged out
[14] = average relative probability of the tetramer, redundant tetramers averaged out
[15] = RP according to MMP2, P3-P1' tetramer of unique physiologic MMP2 substrates from MEROPS
[16] = RP according to MMP9, P3-P1' tetramer of unique physiologic MMP9 substrates from MEROPS

## PPGL [P3-P1' tetramer cluster]
[1]; [3]
  relative probability (RP) (acc.to MMP2): 24.36
[2]; [4]
  relative probability (RP) (acc.to MMP9): 34.4
[2]; [5]
  relative probability (RP): 34.4

## PPGS
[1]; [3]
  relative probability (RP) (acc.to MMP2): 0.1
[2]; [4]
  relative probability (RP) (acc.to MMP9): 0.2

## PPPL
[1]; [6]
  relative probability (RP) (acc.to MMP2): 13.03
[1]
  relative probability (RP) of matching tetramer: 13.03
[1]; [7]
  relative probability (RP) (acc.to MMP2): 13.03
[2]; [8]
  relative probability (RP) (acc.to MMP9): 14.18
[2]; [9]
  relative probability (RP): 14.18
[2]; [10]
  relative probability (RP) (acc.to MMP9): 14.18

## PQGF
[1]; [3]
  relative probability (RP) (acc.to MMP2): 27.05
[2]; [4]
  relative probability (RP) (acc.to MMP9): 37.1

## PQGL
[1]; [3]
  relative probability (RP) (acc.to MMP2): 33.52
[2]; [4]
  relative probability (RP) (acc.to MMP9): 47.86

## PQGLAG
[1]; [11]
  relative probability (RP): 33.5241
[2]; [12]
  relative probability (RP): 47.8621

## PQLL
[1]; [13]
  avg_RP: 22.6078
[1]; [7]
  relative probability (RP) (acc.to MMP2): 22.61
[2]; [9]
  relative probability (RP): 32.66
[2]; [10]
  relative probability (RP) (acc.to MMP9): 32.66

## PQPEGL
[1]; [11]
  relative probability (RP): 29.5031
[2]; [12]
  relative probability (RP): 39.4116

## PQPLDL
[1]; [11]
  relative probability (RP): 30.3595
[2]; [12]
  relative probability (RP): 47.1306

## PQPSEL
[1]; [11]
  relative probability (RP): 31.5156
[2]; [12]
  relative probability (RP): 41.3266

## PRAV
[1]; [14]
  avg_RP: 28.3444
[1]; [6]
  relative probability (RP) (acc.to MMP2): 28.34
[1]
  relative probability (RP) of matching tetramer: 28.34
[1]; [7]
  relative probability (RP) (acc.to MMP2): 28.34
[2]; [8]
  relative probability (RP) (acc.to MMP9): 40.85
[2]; [9]
  relative probability (RP): 40.85
[2]; [10]
  relative probability (RP) (acc.to MMP9): 40.85

## PREL
[1]; [7]
  relative probability (RP) (acc.to MMP2): 31.95
[2]; [9]
  relative probability (RP): 44.67
[2]; [10]
  relative probability (RP) (acc.to MMP9): 44.67

## PRFL
[1]; [14]
  avg_RP: 28.4443
[1]; [6]
  relative probability (RP) (acc.to MMP2): 28.44
[1]
  relative probability (RP) of matching tetramer: 28.44
[1]; [7]
  relative probability (RP) (acc.to MMP2): 28.44
[2]; [8]
  relative probability (RP) (acc.to MMP9): 42.45
[2]; [9]
  relative probability (RP): 42.45
[2]; [10]
  relative probability (RP) (acc.to MMP9): 42.45

## PRGFSH
[1]; [11]
  relative probability (RP): 32.9171
[2]; [12]
  relative probability (RP): 42.5506

## PRGVKG
[1]; [11]
  relative probability (RP): 29.4971
[2]; [12]
  relative probability (RP): 42.1832

## PRGY
[1]; [6]
  relative probability (RP) (acc.to MMP2): 34.02
[1]
  relative probability (RP) of matching tetramer: 34.02
[1]; [7]
  relative probability (RP) (acc.to MMP2): 34.02
[2]; [8]
  relative probability (RP) (acc.to MMP9): 46.79
[2]; [9]
  relative probability (RP): 46.79
[2]; [10]
  relative probability (RP) (acc.to MMP9): 46.79

## PRHR
[1]; [3]
  relative probability (RP) (acc.to MMP2): 0.04
[2]; [4]
  relative probability (RP) (acc.to MMP9): 0.35

## PRHS
[1]; [6]
  relative probability (RP) (acc.to MMP2): 13.22
[1]
  relative probability (RP) of matching tetramer: 13.22
[1]; [7]
  relative probability (RP) (acc.to MMP2): 13.22
[2]; [8]
  relative probability (RP) (acc.to MMP9): 18.44
[2]; [9]
  relative probability (RP): 18.44
[2]; [10]
  relative probability (RP) (acc.to MMP9): 18.44

## PRKQ
[1]; MMP9 tetramers from unique substrates, RP of same tetramer for MMP2
  corresponding MMP2 relative probability (RP): 15.8695
[2]; MMP9 tetramers from unique substrates, unrounded values
  MMP9 relative probability (RP): 2.4663

## PRML [P3-P1' tetramer cluster]
[1]; [14]
  avg_RP: 30.5973
[2]; [5]
  relative probability (RP): 42.29

## PRPFHH
[1]; [11]
  relative probability (RP): 32.5323
[2]; [12]
  relative probability (RP): 43.6397

## PRPL [P3-P1' tetramer cluster]
[1]; average relative probability of the P3-P1' tetramer, redundant tetramers have been averaged out
  avg_RP: 34.3303
[2]; [5]
  relative probability (RP): 46.79

## PRPQAA
[1]; [11]
  relative probability (RP): 27.2115
[2]; [12]
  relative probability (RP): 37.3898

## PRPY
[1]; [6]
  relative probability (RP) (acc.to MMP2): 33.44
[1]
  relative probability (RP) of matching tetramer: 33.44
[1]; [7]
  relative probability (RP) (acc.to MMP2): 33.44
[2]; [8]
  relative probability (RP) (acc.to MMP9): 47.69
[2]; [9]
  relative probability (RP): 47.69
[2]; [10]
  relative probability (RP) (acc.to MMP9): 47.69

## PSGD
[1]; [3]
  relative probability (RP) (acc.to MMP2): 0.16
[2]; [4]
  relative probability (RP) (acc.to MMP9): 0.48

## PSGK
[1]; [3]
  relative probability (RP) (acc.to MMP2): 2.08
[2]; [4]
  relative probability (RP) (acc.to MMP9): 1.08

## PSGL
[1]; [3]
  relative probability (RP) (acc.to MMP2): 35.5
[2]; [4]
  relative probability (RP) (acc.to MMP9): 47.39

## PSKL
[1]; [13]
  avg_RP: 32.2205
[1]; [6]
  relative probability (RP) (acc.to MMP2): 32.22
[1]
  relative probability (RP) of matching tetramer: 32.22
[1]; [7]
  relative probability (RP) (acc.to MMP2): 32.22
[2]; [8]
  relative probability (RP) (acc.to MMP9): 38.96
[2]; [9]
  relative probability (RP): 38.96
[2]; [10]
  relative probability (RP) (acc.to MMP9): 38.96

## PSLQ
[1]; MMP2 tetramers from unique substrates, unrounded values
  MMP2 relative probability (RP): 7.654
[1]; [15]
  Relative probability (RP) rank: 6015
  relative probability (RP): 7.65
[1]; [3]
  relative probability (RP) (acc.to MMP2): 7.65
[2]; MMP2 tetramers from unique substrates, RP of same tetramer for MMP9
  corresponding MMP9 relative probability (RP): 1.544
[2]; [16]
  Relative probability (RP) rank: 11624
  relative probability (RP): 1.54
[2]; [4]
  relative probability (RP) (acc.to MMP9): 1.54

## PSNMEG
[1]; [11]
  relative probability (RP): 32.3748
[2]; [12]
  relative probability (RP): 45.3884

## PSPADI
[1]; [11]
  relative probability (RP): 23.2522
[2]; [12]
  relative probability (RP): 25.0899

## PSQM
[1]; [3]
  relative probability (RP) (acc.to MMP2): 27.24
[2]; [4]
  relative probability (RP) (acc.to MMP9): 37.02

## PSSV
[1]; [3]
  relative probability (RP) (acc.to MMP2): 20.49
[2]; [4]
  relative probability (RP) (acc.to MMP9): 25.16

## PTGK
[1]; [3]
  relative probability (RP) (acc.to MMP2): 0.04
[2]; [4]
  relative probability (RP) (acc.to MMP9): 0

## PTGL
[1]; [14]
  avg_RP: 33.1098
[1]; [3]
  relative probability (RP) (acc.to MMP2): 33.11
[2]; [4]
  relative probability (RP) (acc.to MMP9): 39.89

## PTGS
[1]; [3]
  relative probability (RP) (acc.to MMP2): 0.04
[2]; [4]
  relative probability (RP) (acc.to MMP9): 0.05

## PTGV
[1]; [3]
  relative probability (RP) (acc.to MMP2): 13.32
[2]; [4]
  relative probability (RP) (acc.to MMP9): 11.14

## PTNL
[1]; [3]
  relative probability (RP) (acc.to MMP2): 31.03
[2]; [4]
  relative probability (RP) (acc.to MMP9): 36.13

## PTPKAL
[1]; [11]
  relative probability (RP): 34.4858
[2]; [12]
  relative probability (RP): 48.3581

## PVAH
[1]; [7]
  relative probability (RP) (acc.to MMP2): 24.82
[2]; [9]
  relative probability (RP): 24.99
[2]; [10]
  relative probability (RP) (acc.to MMP9): 24.99

## PVAIPM
[1]; [11]
  relative probability (RP): 32.4892
[2]; [12]
  relative probability (RP): 44.9732

## PVAV
[1]; [6]
  relative probability (RP) (acc.to MMP2): 27.53
[1]
  relative probability (RP) of matching tetramer: 27.53
[1]; [7]
  relative probability (RP) (acc.to MMP2): 27.53
[2]; [8]
  relative probability (RP) (acc.to MMP9): 32.82
[2]; [9]
  relative probability (RP): 32.82
[2]; [10]
  relative probability (RP) (acc.to MMP9): 32.82

## PVEL
[1]; [3]
  relative probability (RP) (acc.to MMP2): 25.47
[2]; [4]
  relative probability (RP) (acc.to MMP9): 35.1

## PVGMKG
[1]; [11]
  relative probability (RP): 32.557
[2]; [12]
  relative probability (RP): 44.5811

## PVLL
[1]; [6]
  relative probability (RP) (acc.to MMP2): 15.16
[1]
  relative probability (RP) of matching tetramer: 15.16
[1]; [7]
  relative probability (RP) (acc.to MMP2): 15.16
[2]; [8]
  relative probability (RP) (acc.to MMP9): 19.22
[2]; [9]
  relative probability (RP): 19.22
[2]; [10]
  relative probability (RP) (acc.to MMP9): 19.22

## PVNMTD
[1]; [11]
  relative probability (RP): 30.0312
[2]; [12]
  relative probability (RP): 44.4072

## PVNV
[1]; [7]
  relative probability (RP) (acc.to MMP2): 19.63
[2]; [9]
  relative probability (RP): 24.66
[2]; [10]
  relative probability (RP) (acc.to MMP9): 24.66

## PVPV
[1]; [6]
  relative probability (RP) (acc.to MMP2): 23.04
[1]
  relative probability (RP) of matching tetramer: 23.04
[1]; [7]
  relative probability (RP) (acc.to MMP2): 23.04
[2]; [8]
  relative probability (RP) (acc.to MMP9): 29.89
[2]; [9]
  relative probability (RP): 29.89
[2]; [10]
  relative probability (RP) (acc.to MMP9): 29.89

## PVSL
[1]; [3]
  relative probability (RP) (acc.to MMP2): 32.5
[2]; [4]
  relative probability (RP) (acc.to MMP9): 42.36

## PYEWHS
[1]; [11]
  relative probability (RP): 1.984
[2]; [12]
  relative probability (RP): 22.8534
